# From patent US20250282754A1, “BICYCLIC COMPOUNDS AND THEIR USE AS PEST CONTROL AGENTS” (Pl Industries Ltd., priority 2022, published 2025)
# What was measured:
# Format in all cases: in vivo
# Nilaparvata lugens = Nilaparvata lugens seedling dip test (paddy seedlings, third instar nymphs); conditions: dead and moribund third instar nymphs 72 h after release, compared to untreated controls, read-out: percent mortality
# Procedure: The seedling dip method was used for testing, wherein the required quantity of the compound was weighed and dissolved in a tube containing a solvent solution. The tube was put on a vortex at 2000 rpm for proper mixing and then diluted with a 0.01% Triton-X solution to the desired test concentration. Paddy seedlings were dipped in the compound solution for 10 seconds, shade dried for 20 min and then the seedlings were placed in glass test tubes with the roots kept in water. 15 third instar nymphs of Nilaparvata lugens were released into each test tube and the tubes were kept in a plant growth chamber at a temperature of 25° C. and relative humidity of 75%. Observations on dead, moribund and alive nymphs were recorded 72 h after the release. Percent mortality was calculated by combining dead and moribund nymphs and comparing the result to the one of the untreated controls. The compounds
# Bemisia tabaci = Bemisia tabaci leaf dip test (brinjal leaves, whitefly adults); conditions: foliar, dead and moribund whitefly adults 72 h after release, compared to untreated controls, read-out: percent mortality
# Procedure: The leaf dip method was used for testing, wherein the required quantity of the compound was weighed and dissolved in a tube containing a solvent solution. The tube was put on a vortex at 2000 rpm for proper mixing and then diluted with a 0.01% Triton-X solution to the desired test concentration. Brinjal leaves were dipped in the compound solution for 10 seconds; shade dried for 20 min and then placed, with the abaxial side of the leaf up, on 4 ml of a solidified 1% agar-agar solution in respective container caps. Known numbers of freshly emerged whitefly adults were collected, using a modified aspirator, and released into a perforated container in which the cap containing the treated leaf was placed. The containers were kept in a plant growth chamber at a temperature of 25° C. and relative humidity of 70%. Observations on dead, moribund and alive adults were recorded 72 h after the release. Percent mortality was calculated by combining dead and moribund adults and comparing the result to the one of the untreated controls. The compounds 1 9 11 18 25 28 29 30 31
# Myzus persicae = Myzus persicae leaf dip test (capsicum leaves, third instar nymphs); conditions: foliar, dead and moribund third instar nymphs 72 h after release, compared to untreated controls, read-out: percent mortality
# Procedure: The leaf dip method was used for testing, wherein the required quantity of the compound was weighed and dissolved in a tube containing a solvent solution. The tube was put on a vortex at 2000 rpm for proper mixing and then diluted with a 0.01% Triton-X solution to the desired test concentration. Capsicum leaves were dipped in the compound solution for 10 seconds, shade dried for 20 min and then placed, with the abaxial side of the leaf up, in single cells of a bio-assay tray containing 4 ml of a solidified 1% agar-agar solution. Known numbers of third instar nymphs of Myzus persicae, collected in petri plates, were released into the cell with the treated leaf and the cell was covered with a perforated lid for better aeration. The trays were kept in a plant growth chamber at a temperature of 25° C. and a relative humidity of 70%. Observations on dead, moribund and alive nymphs were recorded 72 h after the release. Percent mortality was calculated by combining dead and moribund nymphs and comparing the result with the one of the untreated controls. The compounds
SMILES,mortality at 300 ppm (Nilaparvata lugens) [%],mortality at 300 ppm (Bemisia tabaci) [%],mortality at 300 ppm (Myzus persicae) [%]
CS(C)(=O)=Nc1ccc2nn(-c3cncnc3)cc2c1 [Compound 9],≥ 70,≥ 70,–
CCS(=O)(CC)=Nc1ccc2nn(-c3cncnc3)cc2c1 [Compound 11],≥ 70,≥ 70,–
CS(=O)(=Nc1ccc2nn(-c3cccnc3)cc2c1)c1cccnc1 (stereo not shown) [Compound 30],≥ 70,≥ 70,–
CCCCCS(C)(=O)=Nc1ccc2nn(-c3cncnc3)cc2c1 (stereo not shown) [Compound 33],≥ 70,≥ 70,–
CC(C)S(=O)(=Nc1ccc2nn(-c3cccnc3)cc2c1)c1ccc(F)cc1 (stereo not shown) [Compound 38],≥ 70,≥ 70,–
O=S(CCC(F)(F)F)(=Nc1ccc2nn(-c3ccnnc3)cc2c1)c1ccc(F)cc1 (stereo not shown) [Compound 70],–,–,≥ 70
CS(C)(=O)=Nc1cccc2nn(-c3cccnc3)cc12 [Compound 72],≥ 70,≥ 70,–
CCCS(=O)(CCC)=Nc1cccc2nn(-c3cccnc3)cc12 [Compound 78],≥ 70,≥ 70,–
CS(C)(=O)=Nc1cccc2nn(-c3cncc(F)c3)cc12 [Compound 87],≥ 70,≥ 70,–
"Cc1ccc(S(=O)(=Nc2ccc3nn(-c4cccnc4)cc3c2)N(C)C)cc1 (stereo not shown) [Compound 93, N,N,4-trimethyl-N′-(2-(pyridin-3-yl)-2H-indazol-5-yl)benzenesulfonimidamide]",≥ 70,≥ 70,–
CC(C)S(=O)(CCC(F)(F)F)=Nc1cccc2nn(-c3cncc(F)c3)cc12 (stereo not shown) [Compound 104],≥ 70,≥ 70,–
"COc1nn(-c2ccc3nn(-c4cccnc4)cc3c2)c(=O)n1Cc1cccc(F)c1 [Compound 126, 4-(3-fluorobenzyl)-5-methoxy-2-(2-(pyridin-3-yl)-2H-indazol-5-yl)-2,4-dihydro-3H-1,2,4-triazol-3-one]",≥ 70,≥ 70,–
CCCCS(=O)(CC)=Nc1ccc2nn(-c3cncc(F)c3)c(Cl)c2c1 (stereo not shown) [Compound 194],≥ 70,–,–
CS(C)(=O)=Nc1ccc(Cl)c2nn(-c3cncc(F)c3)cc12 [Compound 202],≥ 70,–,–
CC(C)S(C)(=O)=Nc1ccc(Cl)c2nn(-c3cncc(F)c3)cc12 (stereo not shown) [Compound 206],≥ 70,–,–
"CCOc1nn(-c2cccc3nn(-c4cccnc4)cc23)c(=O)n1Cc1ccc(OC(F)(F)F)cc1 [Compound 331, 5-ethoxy-2-(2-(pyridin-3-yl)-2H-indazol-4-yl)-4-(4-(trifluoromethoxy)benzyl)-2,4-dihydro-3H-1,2,4-triazol-3-one]",≥ 70,–,–
"CCOc1nn(-c2cccc3nn(-c4cccnc4)cc23)c(=O)n1Cc1ccc(F)cc1 [Compound 343, 5-ethoxy-4-(4-fluorobenzyl)-2-(2-(pyridin-3-yl)-2H-indazol-4-yl)-2,4-dihydro-3H-1,2,4-triazol-3-one]",≥ 70,–,–
"COc1nn(-c2ccc3nn(-c4cccnc4)c(Cl)c3c2)c(=O)n1C [Compound 347, 2-(3-chloro-2-(pyridin-3-yl)-2H-indazol-5-yl)-5-methoxy-4-methyl-2,4-dihydro-3H-1,2,4-triazol-3-one]",≥ 70,–,–
"COc1nn(-c2ccc3nn(-c4cncc(F)c4)cc3c2)c(=O)n1Cc1ccccc1F [Compound 355, 4-(2-fluorobenzyl)-2-(2-(5-fluoropyridin-3-yl)-2H-indazol-5-yl)-5-methoxy-2,4-dihydro-3H-1,2,4-triazol-3-one]",≥ 70,≥ 70,–
"COc1nn(-c2cccc3nn(-c4cccnc4)cc23)c(=O)n1Cc1ccccc1F [Compound 356, 4-(2-fluorobenzyl)-5-methoxy-2-(2-(pyridin-3-yl)-2H-indazol-4-yl)-2,4-dihydro-3H-1,2,4-triazol-3-one]",≥ 70,–,–
"COc1nn(-c2cccc3nn(-c4cncnc4)cc23)c(=O)n1Cc1ccccc1F [Compound 357, 4-(2-fluorobenzyl)-5-methoxy-2-(2-(pyrimidin-5-yl)-2H-indazol-4-yl)-2,4-dihydro-3H-1,2,4-triazol-3-one]",≥ 70,–,–

SMILES,mortality at 300 ppm (Nilaparvata lugens) [%],mortality at 300 ppm (Bemisia tabaci) [%],mortality at 300 ppm (Myzus persicae) [%]
"CCOc1nn(-c2ccc3nn(-c4cccnc4)cc3c2)c(=O)n1Cc1ccccc1F [Compound 358, 5-ethoxy-4-(2-fluorobenzyl)-2-(2-(pyridin-3-yl)-2H-indazol-5-yl)-2,4-dihydro-3H-1,2,4-triazol-3-one]",≥ 70,≥ 70,–
"CCOc1nn(-c2cccc3nn(-c4cccnc4)cc23)c(=O)n1Cc1ccccc1F [Compound 359, 5-ethoxy-4-(2-fluorobenzyl)-2-(2-(pyridin-3-yl)-2H-indazol-4-yl)-2,4-dihydro-3H-1,2,4-triazol-3-one]",≥ 70,–,–
"CCOc1nn(-c2cccc3nn(-c4cncnc4)cc23)c(=O)n1Cc1ccccc1F [Compound 360, 5-ethoxy-4-(2-fluorobenzyl)-2-(2-(pyrimidin-5-yl)-2H-indazol-4-yl)-2,4-dihydro-3H-1,2,4-triazol-3-one]",≥ 70,–,–
"COc1nn(-c2ccc3nn(-c4cccnc4)cc3c2)c(=O)n1Cc1ccccc1Cl [Compound 367, 4-(2-chlorobenzyl)-5-methoxy-2-(2-(pyridin-3-yl)-2H-indazol-5-yl)-2,4-dihydro-3H-1,2,4-triazol-3-one]",≥ 70,–,–
"CCCCS(=N)(=O)c1ccc2nn(-c3cccnc3)cc2c1 (stereo not shown) [Compound 385, butyl(imino)(2-(pyridin-3-yl)-2H-indazol-5-yl)-λ^6-sulfanone]",≥ 70,≥ 70,–
CCN=S(=O)(CC)c1ccc2nn(-c3cccnc3)cc2c1 (stereo not shown) [Compound 391],≥ 70,≥ 70,–
"CC(C)S(=O)(=NC#N)c1ccc2nn(-c3cccnc3)cc2c1 (stereo not shown) [Compound 392, N-(isopropyl(oxo)(2-(pyridin-3-yl)-2H-indazol-5-yl)-λ^6-sulfaneylidene)cyanamide]",≥ 70,–,–
CC(C)S(=O)(=NC(=O)C(F)(F)F)c1ccc2nn(-c3cccnc3)cc2c1 (stereo not shown) [Compound 394],≥ 70,–,–
CC(C)S(=O)(=NC(=O)C(F)F)c1ccc2nn(-c3cccnc3)cc2c1 (stereo not shown) [Compound 396],≥ 70,–,–
CC(=O)N=S(=O)(c1cnc2nn(-c3cncc(F)c3)cc2c1)C(C)C (stereo not shown) [Compound 402],≥ 70,–,–
CC(C)S(=O)(=NC(=O)C(F)(F)F)c1ccc2nn(-c3cncnc3)cc2c1 (stereo not shown) [Compound 417],≥ 70,–,–
O=S(CC1CC1)(=NC1CC1)c1ccc2nn(-c3cncnc3)cc2c1 (stereo not shown) [Compound 446],≥ 70,≥ 70,–
CN=S(=O)(CC1CC1)c1ccc2nn(-c3cncnc3)cc2c1 (stereo not shown) [Compound 447],≥ 70,≥ 70,–
"N=S(=O)(CC1CC1)c1ccc2nn(-c3cncnc3)cc2c1 (stereo not shown) [Compound 450, (cyclopropylmethyl)(imino)(2-(pyrimidin-5-yl)-2H-indazol-5-yl)-λ^6-sulfanone]",≥ 70,≥ 70,–
"N=S(=O)(CC1CC1)c1ccc2nn(-c3cccnc3)c(Cl)c2c1 (stereo not shown) [Compound 454, (3-chloro-2-(pyridin-3-yl)-2H-indazol-5-yl)(cyclopropylmethyl)(imino)-λ^6-sulfanone]",≥ 70,–,–
CCS(=O)(=NC(C)=O)c1ccc2nn(-c3cncc(F)c3)cc2c1 (stereo not shown) [Compound 462],≥ 70,≥ 70,–
CCS(=O)(=Nc1ccnc(C)c1)c1ccc2nn(-c3cncc(F)c3)cc2c1 (stereo not shown) [Compound 464],≥ 70,–,–
"CS(=N)(=O)c1ccc2nn(-c3cncnc3)cc2c1 (stereo not shown) [Compound 470, imino(methyl)(2-(pyrimidin-5-yl)-2H-indazol-5-yl)-λ^6-sulfanone]",≥ 70,≥ 70,–
"CCN=S(=O)(CC1CCC1)c1ccc2nn(-c3cncc(F)c3)cc2c1 (stereo not shown) [Compound 471, (cyclobutylmethyl)(ethylimino)(2-(5-fluoropyridin-3-yl)-2H-indazol-5-yl)-λ^6-sulfanone]",≥ 70,–,–
CCN=S(C)(=O)c1ccc2nn(-c3cncnc3)cc2c1 (stereo not shown) [Compound 474],≥ 70,≥ 70,–
CC(=O)N=S(C)(=O)c1ccc2nn(-c3cncnc3)cc2c1 (stereo not shown) [Compound 475],≥ 70,≥ 70,–
